In US20230233736A1, “ANTIMICROBIAL FORMULATIONS COMPRISING SILICONE” (AMICOAT AS, priority 2020, published 2023):
Converted amounts (≈) assume the structure as drawn.

Key:
[1] = test system: Enterococcus faecium; assay type: cell-based
Source text: (§1) Cation-adjusted Mueller-Hinton broth (Oxoid Ltd., Basingstoke, UK and Trek Diagnostic Systems Ltd., East Grinstead, UK) (supplemented with 5% laked horse blood for Streptococcus spp., Corynebacterium jeikeium and Listeria monocytogenes) was used for aerobic bacteria, with an initial inoculum of approximately 10^5 colony-forming units (CFU)/m L.

[2] = test system: Morganella morganii; assay type: cell-based
Source text: as §1

[3] = test system: Streptococcus agalactiae; assay type: cell-based
Source text: as §1

[4] = test system: Streptococcus pyogenes; assay type: cell-based
Source text: as §1

[5] = test system: Klebsiella aerogenes; assay type: cell-based
Source text: as §1

[6] = test system: Group G Streptococcus; assay type: cell-based
Source text: as §1

[7] = test system: Enterobacter sp; assay type: cell-based
Source text: as §1

[8] = test system: Staphylococcus haemolyticus; assay type: cell-based
Source text: as §1

[9] = test system: Cryptococcus neoformans; assay: MIC microbroth dilution (CLSI); assay type: cell-based; settings: G.R. Micro collection
[10] = test system: Staphylococcus aureus, strain ATCC 25923; settings: Table 5; strain ATCC 25923
[11] = test system: Trichophyton interdigitale; assay: MIC microbroth dilution (CLSI); assay type: cell-based; settings: G.R. Micro collection
[12] = test system: Staphylococcus aureus FDA486; assay: Murine skin infection model, topical treatment; assay type: in vivo, mice
Protocol: (§2) The skin of mice was infected with Staphylococcus aureus or Streptococcus pyogenes and subsequently given a total of three treatments at three hourly intervals. Three hours after the last treatment, skin biopsies were collected and the number of colony forming units (CFUs) present in the skin sample was determined. Results are shown in FIGS. 1 and 2, expressed as the number of colony forming units per mouse.
In experiment 1 (FIG. 1), compound 2 was applied to the murine skin as part of either a cream or a gel containing 2% (w/w) of compound 2. The same cream or gel without compound 2 was used as a negative control (placebo).
as §2, with “3, 4” for “1”, “5” for “2,”
In experiment 1 (FIG. 3), compound 7 was applied to the murine skin as part of either a cream or a gel containing 2% (w/w) of compound 7. The same cream or gel without compound 7 was used as a negative control (placebo). Bactroban 2% cream was used as a positive control.
In experiment 3 (FIG. 5), compound 8 was applied in a 2% cream formulation on a Staphylococcus aureus FDA 486 infection in the murine skin infection model. A placebo cream and two known antibacterials, “Fucidin (fucidic acid) ointment 2%” and “Bactroban (mupericin) cream 2%” were used as controls.

[13] = test system: Aspergillus niger; assay: MIC microbroth dilution (CLSI); assay type: cell-based; settings: G.R. Micro collection
[14] = test system: Staphylococcus saprophyticus; assay: MIC microbroth dilution (CLSI); assay type: cell-based; settings: antibiotic susceptible clinical isolate
Source text: as §1

[15] = test system: Enterococcus gallinarum; assay: MIC microbroth dilution (CLSI); assay type: cell-based; settings: vancomycin-resistant (VanC) clinical isolate
Source text: as §1

[16] = test system: Listeria monocytogenes; assay: MIC microbroth dilution (CLSI); assay type: cell-based; settings: antibiotic-susceptible clinical isolate
Source text: as §1

[17] = test system: Stenotrophomonas maltophilia; assay: MIC microbroth dilution (CLSI); assay type: cell-based; settings: antibiotic-susceptible clinical isolate
Source text: as §1

[18] = test system: Salmonella sp; assay: MIC microbroth dilution (CLSI); assay type: cell-based
Source text: as §1

[19] = test system: Shigella sp; assay: MIC microbroth dilution (CLSI); assay type: cell-based; settings: antibiotic-susceptible clinical isolate
Source text: as §1

[20] = test system: Candida parapsilosis
[21] = test system: C. albicans; assay: Antimicrobial assay, Table 5; assay type: cell-based
[22] = test system: Staphylococcus aureus; assay type: cell-based
Source text: as §1
(§3) To evaluate whether freezing affected the activity of the peptides some MIC determinations were repeated using plates containing freshly-prepared Mueller-Hinton broth.

[23] = test system: P. aeruginosa; assay: Antimicrobial assay, Table 5; assay type: cell-based
[24] = test system: Trichophyton mentagrophytes; assay: MIC microbroth dilution (CLSI); assay type: cell-based; settings: G.R. Micro collection
[25] = test system: Microsporum canis; assay: MIC microbroth dilution (CLSI); assay type: cell-based; settings: G.R. Micro collection
[26] = test system: Methicillin resistant Staphylococcus epidermidis (MRSE) strain ATCC 27626; settings: Table 5; strain ATCC 27626
[27] = test system: E. coli; assay: Antimicrobial assay, Table 5; assay type: cell-based
[28] = test system: S. pyogenes; assay: Antimicrobial assay, Table 5; assay type: cell-based
[29] = test system: Methicillin resistant Staphylococcus aureus (MRSA) strain ATCC 33591; settings: Table 5; strain ATCC 33591
[30] = test system: Propionibacterium acnes; assay: MIC microbroth dilution (CLSI); assay type: cell-based
Protocol: Supplemented Brucella broth (SBB) was used for the anaerobic strains with an inoculum of approximately 10^6 CFU/mL. SBB is a broth consisting of 1% peptone, 0.5% ‘Lab-lemco’, 1% glucose and 0.5% sodium chloride supplemented with 5 μg/L haemin and 1 μg/L vitamin K (both obtained from Sigma Aldrich Ltd.) Yeast and filamentous fungal MIC were performed in MOPS buffered RPMI 1640 medium (MOPS buffer obtained from Sigma Aldrich Ltd., RPMI 1640 obtained from Invitrogen Ltd, Paisley, Scotland). The yeast inocula were in the range 7.5×10^2-4×10^3 CFU/mL and the filamentous fungi approximately 8×10^3-1×10^5 CFU/mL
MICs were determined as described in Example 2.

[31] = test system: Candida tropicalis; assay: MIC microbroth dilution (CLSI); assay type: cell-based; settings: ATCC750 - reference strain
[32] = test system: Staphylococcus epidermidis; assay type: cell-based
Source text: as §1

[33] = test system: Corynebacterium jeikeium; assay type: cell-based
Source text: as §1

[34] = test system: Enterococcus faecalis; assay type: cell-based; settings: vancomycin-resistant (VanB) clinical isolate
Source text: as §1, §3

[35] = test system: Streptococcus pyogenes; assay: Murine skin infection model, topical treatment; assay type: in vivo, mice; settings: FIG. 4, Streptococcus pyogenes CS 301
Protocol: as §2
In experiment 2 (FIG. 2), compound 2 was applied in two different concentrations, as either a 1% or a 2% gel. A placebo gel and a known antibacterial “bactroban” were used as controls.
as §2, with “3, 4” for “1”, “5” for “2,”
In experiment 2 (FIG. 4), compound 7 was applied in two different concentrations, as either a 1% or a 2% gel. A placebo gel and a known antibacterial “bactroban (mupericin)” were used as controls.

[36] = test system: Candida (Issatchenkia) krusei
[37] = test system: Clostridium perfringens; settings: antibiotic-susceptible clinical isolate
[38] = antibiotic-susceptible clinical isolate

With `CCCCCCNC(=O)[C@H](CCCNC(=N)N)NC(=O)[C@H](Cc1c(C(C)(C)C)[nH]c2c(C(C)(C)C)cc(C(C)(C)C)cc12)NC(=O)[C@@H](N)CCCNC(=N)N` [Compound 8] the MIC [1] was 4 µg/mL (≈ 5.21 µM), the MIC [2] was 8 µg/mL (≈ 10.4 µM) and the MIC [3] was 8 µg/mL (≈ 10.4 µM). The MIC [4] was 8 µg/mL (≈ 10.4 µM), the MIC [5] was 8 µg/mL (≈ 10.4 µM) and the MIC [6] was 8 µg/mL (≈ 10.4 µM). It also gave an MIC [7] of 8 µg/mL (≈ 10.4 µM), an MIC [8] of 4 µg/mL (≈ 5.21 µM) and an MIC [9] of 2 µg/mL (≈ 2.6 µM). For the same compound, the S. aureus [10] was 2 mg/L, the MIC [11] was 4 µg/mL (≈ 5.21 µM) and the “number of colony forming units (CFU) in skin biopsy” value (“number of colony forming units” for short) ([12]; FIG. 5, 2% cream formulation) was “more effective at reducing the number of CFUs than the placebo and fucidin or bactroban”. For the same compound, the MIC [13] was 4 µg/mL (≈ 5.21 µM), the MIC [14] was 0.5 µg/mL (≈ 0.651 µM) and the MIC [15] was 4 µg/mL (≈ 5.21 µM). It also gave an MIC [16] of 8 µg/mL (≈ 10.4 µM), an MIC [17] of 4 µg/mL (≈ 5.21 µM) and an MIC [18, 38] of 8 µg/mL (≈ 10.4 µM). For the same compound, the MIC ([18]; multi-drug resistant clinical isolate) was 8 µg/mL (≈ 10.4 µM), the MIC [19] was 4 µg/mL (≈ 5.21 µM) and the MIC [20] was 8 µg/mL (≈ 10.4 µM). It also gave a C. albicans [21] of 5 mg/L, an MIC [22] of 4 µg/mL (≈ 5.21 µM) and a P. aeruginosa [23] of 5 mg/L. The MIC [24] was 4 µg/mL (≈ 5.21 µM), the MIC [25] was 4 µg/mL (≈ 5.21 µM) and the MRSE [26] was <1 mg/L. It also gave an E. coli [27] of 5 mg/L, a S. pyogenes [28] of 2 mg/L and an MRSA [29] of 2 mg/L. For the same compound, the MIC ([30]; antibiotic-resistant clinical isolate) was 2 µg/mL (≈ 2.6 µM), the MIC [30, 38] was 4 µg/mL (≈ 5.21 µM) and the MIC [31] was 4 µg/mL (≈ 5.21 µM).

For `CC(C)NC(=O)[C@H](CCCNC(=N)N)NC(=O)[C@H](Cc1c(C(C)(C)C)[nH]c2c(C(C)(C)C)cc(C(C)(C)C)cc12)NC(=O)[C@@H](N)CCCNC(=N)N` [Compound 7], the MIC [32] was 4 µg/mL (≈ 5.51 µM), the MIC [33] was 8 µg/mL (≈ 11 µM) and the MIC [8] was 4 µg/mL (≈ 5.51 µM). For the same compound, the MIC [9] was 8 µg/mL (≈ 11 µM), the S. aureus [10] was <2 mg/L and the “number of colony forming units” value ([12]; FIG. 3, cream or gel 2% (w/w), three treatments, compared to placebo) was “number of CFUs was reduced”. For the same compound, the MIC [14] was 2 µg/mL (≈ 2.75 µM), the MIC [15] was 8 µg/mL (≈ 11 µM) and the C. albicans [21] was 25 mg/L. For the same compound, the MIC [34] was ≥128 µg/mL, the P. aeruginosa [23] was 7 mg/L and the MIC [24] was 8 µg/mL (≈ 11 µM). For the same compound, the MRSE [26] was <2 mg/L, the “number of CFUs, 2% gel compared with 1% gel” value [35] was “more effective than the gel containing only 1% of compound 7” and the “number of colony forming units” value ([35]; 1% or 2% gel) was “more effective at reducing the number of CFUs from a Streptococcus pyogenes CS 301 infection than the placebo gel or the bactroban”. For the same compound, the MIC [36] was 8 µg/mL (≈ 11 µM), the E. coli [27] was 7 mg/L and the S. pyogenes [28] was <2 mg/L. The MIC [37] was ≥128 µg/mL, the MRSA [29] was <2 mg/L and the MIC [31] was 4 µg/mL (≈ 5.51 µM).
